Data as given in ChEMBL document CHEMBL1129141, “Synthesis, characterization, and anti-HIV activity of some 2-p-X-phenyl-1,3-N,N-diphenyl-amidines” (Bioorg Med Chem Lett, 1996).

Assays:
[1] = tested on: Human immunodeficiency virus 1; experiment: Compound was tested for the drug concentration which reduces viral antigen production by 50%; assay type: functional, organism-based
[2] = Compound was tested for the drug concentration which reduces the viability of uninfected C8166 cells by 50%; assay type: cell-based; settings: human, read-out: TC50 (the source's name)
[3] = SI (selectivity index) is the ratio of TC50 to EC50; assay type: functional

Cc1ccc(/C(=N/c2ccccc2)Nc2ccccc2)cc1
EC50 [1]: > 500 µM | CC50 [2]: > 500 µM | SI [3]: < 1

COc1ccc(/C(=N/c2ccccc2)Nc2ccccc2)cc1
EC50 [1]: > 80 µM | CC50 [2]: 80 µM | SI [3]: < 1

O=[N+]([O-])c1ccc(/C(=N/c2ccccc2)Nc2ccccc2)cc1
EC50 [1]: 20 µM | CC50 [2]: 80 µM | SI [3]: 4

Clc1ccc(/C(=N/c2ccccc2)Nc2ccccc2)cc1
EC50 [1]: 8 µM | CC50 [2]: 1000 µM | SI [3]: 125

Brc1ccc(/C(=N/c2ccccc2)Nc2ccccc2)cc1
EC50 [1]: 100 µM | CC50 [2]: 200 µM | SI [3]: 2

Cc1cn([C@H]2C[C@H](N=[N+]=[N-])[C@@H](CO)O2)c(=O)[nH]c1=O [ZIDOVUDINE]
EC50 [1]: 0.016 µM | CC50 [2]: > 1000 µM | SI [3]: > 6

c1ccc(/N=C(\Nc2ccccc2)c2ccccc2)cc1
EC50 [1]: > 400 µM | CC50 [2]: 400 µM | SI [3]: < 1
